Data taken from PubChem BioAssay (NCI).
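Five concentrations, 48 hours, 96-well plates. GI50: concentration for 50% inhibition of growth. Definition used: TGI = concentration required for complete inhibition of growth.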

Key:
Assay in all cases: inhibition of tumour cell growth, NCI panel, 48 h
[1] = system: SF-268 CNS
[2] = system: M14 melanoma
[3] = system: T-47D breast
[4] = system: OVCAR-8 ovarian
[5] = system: U251 CNS
[6] = system: SK-OV-3 ovarian
[7] = system: DU-145 prostate
[8] = system: MDA-MB-468 breast
[9] = system: HS 578T breast
[10] = system: K-562 leukemia
[11] = system: SN12C renal
[12] = system: SNB-19 CNS
[13] = system: NCI/ADR-RES ovarian
[14] = system: BT-549 breast
[15] = system: UACC-257 melanoma
[16] = system: SR leukemia
[17] = system: NCI-H23 lung
[18] = system: UACC-62 melanoma
[19] = system: HT29 colon
[20] = system: OVCAR-5 ovarian
[21] = system: SK-MEL-2 melanoma
[22] = system: RXF 393 renal
[23] = system: MALME-3M melanoma
[24] = system: IGROV1 ovarian
[25] = system: A498 renal
[26] = system: 786-0 renal
[27] = system: LOX IMVI melanoma
[28] = system: NCI-H522 lung
[29] = system: CAKI-1 renal
[30] = system: SF-539 CNS
[31] = system: HCT-116 colon
[32] = system: CCRF-CEM leukemia
[33] = system: MDA-MB-231 breast
[34] = system: SK-MEL-5 melanoma
[35] = system: HL-60(TB) leukemia
[36] = system: SK-MEL-28 melanoma
[37] = system: SNB-75 CNS
[38] = system: A549 NSCLC
[39] = system: HCT-15 colon
[40] = system: HOP-92 NSCLC
[41] = system: HOP-62 NSCLC
[42] = system: KM12 colon
[43] = system: UO-31 renal
[44] = system: MCF7 breast
[45] = system: HCC-2998 colon
[46] = system: COLO 205 colon
[47] = system: PC-3 prostate
[48] = system: RPMI-8226 leukemia
[49] = system: NCI-H460 lung
[50] = system: NCI-H226 lung
[51] = system: OVCAR-4 ovarian
[52] = system: TK-10 renal
[53] = system: EKVX NSCLC
[54] = system: SW-620 colon
[55] = system: MDA-MB-435
[56] = system: SF-295 CNS
[57] = system: MOLT-4 leukemia
[58] = system: ACHN renal
[59] = system: OVCAR-3 ovarian

## OC(c1ccccc1)(c1ccccc1)C1CCN(c2ccc3nnc(Cl)n3n2)CC1
[1]
  GI50: 26.3 µM
  TGI: > 100 µM
[2]
  GI50: 17.4 µM
  TGI: 34.9 µM
[3]
  GI50: 20.6 µM
  TGI: > 100 µM
[4]
  GI50: 25.7 µM
  TGI: 76.9 µM
[5]
  GI50: 18 µM
  TGI: 39.6 µM
[6]
  GI50: 42.1 µM
  TGI: > 100 µM
[7]
  GI50: 24 µM
  TGI: > 100 µM
[8]
  GI50: 13 µM
  TGI: 35.4 µM
[9]
  GI50: 22 µM
  TGI: 53.2 µM
[10]
  GI50: 14 µM
  TGI: > 100 µM
[11]
  GI50: 17.5 µM
  TGI: 40 µM
[12]
  GI50: 36.3 µM
  TGI: > 100 µM
[13]
  GI50: 18 µM
  TGI: 63.3 µM
[14]
  GI50: 13.9 µM
  TGI: 29.8 µM
[15]
  GI50: 18.5 µM
  TGI: 37.9 µM
[16]
  GI50: 10.9 µM
  TGI: 47.5 µM
[17]
  GI50: 16.8 µM
  TGI: 37.3 µM
[18]
  GI50: 14.6 µM
  TGI: 30.4 µM
[19]
  GI50: 16.9 µM
  TGI: 36.4 µM
[20]
  GI50: 17.5 µM
  TGI: 45.2 µM
[21]
  GI50: 16.5 µM
  TGI: 32.8 µM
[22]
  GI50: 14.5 µM
  TGI: 29.4 µM
[23]
  GI50: 19.5 µM
  TGI: 33.9 µM
[24]
  GI50: 16.4 µM
  TGI: 41.9 µM
[25]
  GI50: 16.8 µM
  TGI: 32.6 µM
[26]
  GI50: 25 µM
  TGI: 71.8 µM
[27]
  GI50: 15.3 µM
  TGI: 29 µM
[28]
  GI50: 15.6 µM
  TGI: 49.1 µM
[29]
  GI50: 15.6 µM
  TGI: 81.3 µM
[30]
  GI50: 17.2 µM
  TGI: 38.7 µM
[31]
  GI50: 14.1 µM
  TGI: 39.1 µM
[32]
  GI50: 12.8 µM
  TGI: > 100 µM
[33]
  GI50: 15.4 µM
  TGI: 30.4 µM
[34]
  GI50: 13.7 µM
  TGI: 26.6 µM
[35]
  GI50: 12.7 µM
  TGI: 42.9 µM
[36]
  GI50: 18.3 µM
  TGI: 43 µM
[37]
  GI50: 14.6 µM
  TGI: 36.9 µM
[38]
  GI50: 18 µM
  TGI: > 100 µM
[39]
  GI50: 15.7 µM
  TGI: 54.2 µM
[40]
  GI50: 10.8 µM
  TGI: 29 µM
[41]
  GI50: 44 µM
  TGI: > 100 µM
[42]
  GI50: 16.2 µM
  TGI: 42.5 µM
[43]
  GI50: 11 µM
  TGI: 29.1 µM
[44]
  GI50: 16.2 µM
  TGI: 44.2 µM
[45]
  GI50: 15.5 µM
  TGI: 29.9 µM
[46]
  GI50: 18.3 µM
  TGI: 46.2 µM
[47]
  GI50: 8.75 µM
  TGI: 62.2 µM
[48]
  GI50: 9.29 µM
  TGI: 50.8 µM
[49]
  GI50: 14.1 µM
  TGI: 32.6 µM
[50]
  GI50: 14.5 µM
  TGI: 38.9 µM
[51]
  GI50: 23.2 µM
  TGI: > 100 µM
[52]
  GI50: 22.9 µM
  TGI: 62.5 µM
[53]
  GI50: 15.5 µM
  TGI: 54.3 µM
[54]
  GI50: 25 µM
  TGI: 67.8 µM
[55]
  GI50: 19.5 µM
  TGI: 43.3 µM
[56]
  GI50: 17 µM
  TGI: 54.1 µM
[57]
  GI50: 4.18 µM
  TGI: 31.6 µM
[58]
  GI50: 14.2 µM
  TGI: 44.8 µM
[59]
  GI50: 21.1 µM
  TGI: 65.7 µM
